Calls of active or inactive are those of the source. The calls are words filed in the database; no cut-off is given here.

This note sets out measurements from ChEMBL document CHEMBL1155961, “Novel 4-aryl-pyrido[1,2-c]pyrimidines with dual SSRI and 5-HT1A activity: part 2” (Eur J Med Chem, 2009).

Experiment [1] concerns the target T1, 5-hydroxytryptamine receptor 1A (Rattus norvegicus, UniProt P19327).
T1 sequence (P19327 whole entry): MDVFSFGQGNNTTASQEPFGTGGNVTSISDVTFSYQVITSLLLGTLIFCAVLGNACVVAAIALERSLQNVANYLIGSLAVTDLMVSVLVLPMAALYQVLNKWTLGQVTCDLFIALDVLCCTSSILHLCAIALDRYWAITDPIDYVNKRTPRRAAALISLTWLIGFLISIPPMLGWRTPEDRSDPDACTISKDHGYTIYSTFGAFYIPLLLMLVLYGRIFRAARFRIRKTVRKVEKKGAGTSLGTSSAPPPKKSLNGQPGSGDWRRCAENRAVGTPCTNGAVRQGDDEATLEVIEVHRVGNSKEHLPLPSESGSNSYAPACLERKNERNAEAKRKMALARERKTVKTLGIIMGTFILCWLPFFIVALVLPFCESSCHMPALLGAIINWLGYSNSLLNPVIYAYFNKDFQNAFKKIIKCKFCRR
Description: Displacement of [3H]8-OH-DPAT from 5-HT1A receptor in rat hippocampus. The experiment is classed as tissue-based. Background: Loss of bound radioactivity is the signal in a displacement assay; it reports binding, not function.

In experiment [2] the target is Sodium-dependent serotonin transporter (Rattus norvegicus, UniProt P31652). The experiment is described as follows: Displacement of [3H]citalopram from SERT in rat cerebral cortex by liquid scintillation counting. The experiment is classed as tissue-based.
Experiment [3] has as its system Mus musculus. Description: Effect on hypothermia in Swiss albino mouse assessed as change in rectal body temperature at 10 mg/kg, ip dosed 15 mins after 0.1 mg/kg, sc WAY 100635 challenge measured after 30 mins by inducible hypothermia test. The experiment is classed as functional, organism-based.
Experiment [4] deals with Mus musculus. Description: Antidepressant activity in Swiss albino mouse assessed as reduction of immobility time at 10 mg/kg, ip administered 30 mins before test measured 6 mins test session after 2 mins habituation period by forced swimming test. Conditions: route intraperitoneal. In kind it is functional. Also noted: scale not given: the % may be the effect or the level left.

Experiment [5] deals with Mus musculus. Description: Effect on hypothermia in Swiss albino mouse assessed as change in rectal body temperature at 10 mg/kg, ip dosed 15 mins after 0.1 mg/kg, sc WAY 100635 challenge measured after 60 mins by inducible hypothermia test. The experiment is classed as functional, organism-based.
In experiment [6] the test system is Mus musculus. The experiment is described as follows: Effect on hypothermia in Swiss albino mouse assessed as change in rectal body temperature at 5 mg/kg, ip after 60 mins by inducible hypothermia test. In kind it is functional, organism-based. Also noted: dose 5 mg/kg.
Experiment [7] relates to Mus musculus. The experiment is described as follows: Antidepressant activity in Swiss albino mouse assessed as reduction of immobility time at 5 mg/kg, ip administered 30 mins before test measured 6 mins test session after 2 mins habituation period by forced swimming test. Also noted: dose 5 mg/kg. The experiment is classed as functional, organism-based.
Experiment [8] concerns Mus musculus. The experiment is described as follows: Effect on hypothermia in Swiss albino mouse assessed as change in rectal body temperature at 5 mg/kg, ip after 90 mins by inducible hypothermia test. The experiment is classed as functional, organism-based. Also noted: dose 5 mg/kg.
For experiment [9], the system named is Mus musculus. Description: Effect on hypothermia in Swiss albino mouse assessed as change in rectal body temperature at 5 mg/kg, ip after 30 mins by inducible hypothermia test. In kind it is functional, organism-based. Also noted: dose 5 mg/kg.
Experiment [10] relates to Mus musculus. The experiment is described as follows: Effect on spontaneous locomotor activity in Swiss albino mouse assessed as number of light-beam crossings in actiometers pretreated for 30 mins at 10 mg/kg, ip measured during 30 mins post drug dose. In kind it is functional. The conditions noted are these: route intraperitoneal.
The test system of experiment [11] is Mus musculus. The experiment is described as follows: Effect on hypothermia in Swiss albino mouse assessed as change in rectal body temperature at 10 mg/kg, ip after 30 mins by inducible hypothermia test. In kind it is functional, organism-based. Also noted: dose 10 mg/kg.
Experiment [12] deals with Mus musculus. The experiment is described as follows: Effect on spontaneous locomotor activity in Swiss albino mouse assessed as number of light-beam crossings in actiometers pretreated for 30 mins at 10 mg/kg, ip measured during 6 mins post drug dose. Conditions: route intraperitoneal. The experiment is classed as functional.
Experiment [13] has as its system Mus musculus. The experiment is described as follows: Effect on hypothermia in Swiss albino mouse assessed as change in rectal body temperature at 10 mg/kg, ip after 60 mins by inducible hypothermia test. In kind it is functional, organism-based. Also noted: dose 10 mg/kg.
For experiment [14], the system named is Mus musculus. Description: Effect on hypothermia in Swiss albino mouse assessed as change in rectal body temperature at 5 mg/kg, ip after 120 mins by inducible hypothermia test. In kind it is functional, organism-based. The arrangement: dose 5 mg/kg.
Experiment [15] concerns Mus musculus. Description: Effect on hypothermia in Swiss albino mouse assessed as change in rectal body temperature at 10 mg/kg, ip after 90 mins by inducible hypothermia test. In kind it is functional, organism-based. Also noted: dose 10 mg/kg.
Experiment [16] deals with Mus musculus. The experiment is described as follows: Effect on hypothermia in Swiss albino mouse assessed as change in rectal body temperature at 10 mg/kg, ip after 120 mins by inducible hypothermia test. The experiment is classed as functional, organism-based. Also noted: dose 10 mg/kg.

Sodium-dependent serotonin transporter, sequence (P31652 whole entry): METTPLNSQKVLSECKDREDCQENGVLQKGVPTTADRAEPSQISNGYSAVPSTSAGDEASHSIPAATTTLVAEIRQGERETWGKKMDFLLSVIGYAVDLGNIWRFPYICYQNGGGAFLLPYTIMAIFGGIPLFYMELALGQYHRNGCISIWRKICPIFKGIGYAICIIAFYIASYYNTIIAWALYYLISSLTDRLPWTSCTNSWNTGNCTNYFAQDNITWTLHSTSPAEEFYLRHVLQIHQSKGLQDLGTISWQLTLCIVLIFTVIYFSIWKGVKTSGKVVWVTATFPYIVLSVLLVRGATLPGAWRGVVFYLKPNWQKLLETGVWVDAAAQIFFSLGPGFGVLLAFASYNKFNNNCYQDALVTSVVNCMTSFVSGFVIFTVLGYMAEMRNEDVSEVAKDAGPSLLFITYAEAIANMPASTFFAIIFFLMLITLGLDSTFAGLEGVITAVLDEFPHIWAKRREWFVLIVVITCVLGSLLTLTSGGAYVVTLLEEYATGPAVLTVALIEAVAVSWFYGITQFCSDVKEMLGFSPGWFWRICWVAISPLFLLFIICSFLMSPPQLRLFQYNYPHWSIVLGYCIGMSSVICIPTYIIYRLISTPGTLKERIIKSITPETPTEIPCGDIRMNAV

Turning to `Cc1ccccc1-c1c2n(c(=O)n(CCCCN3CCC(c4c[nH]c5ccccc45)CC3)c1=O)CCCC2`, the results for the Ki in [1] and in [2] were 53.8 nM and 124 nM, respectively.
As for `COc1ccccc1-c1c2n(c(=O)n(CCCCN3CCC(c4c(C)[nH]c5ccccc45)CC3)c1=O)CCCC2`, the Ki in [1] was 1600 nM; in [2] it was 719 nM.
Turning to `Cc1[nH]c2ccccc2c1C1CCN(CCCCn2c(=O)c(-c3ccccc3F)c3n(c2=O)CCCC3)CC1`, the Ki in experiment [1] was found to be 2200 nM; in [2], 944 nM.
Take `COc1ccc2[nH]cc(C3CCN(CCCCn4c(=O)c(-c5ccc(F)cc5)c5n(c4=O)CCCC5)CC3)c2c1`: the Ki stood at 13.9 nM in experiment [1] and 76.1 nM in [2].
`COc1ccc(-c2c3n(c(=O)n(CCCCN4CCC(c5c(C)[nH]c6ccccc56)CC4)c2=O)CCCC3)cc1` gave a Ki in experiment [2] of 203 nM.
Regarding `COc1ccc2[nH]cc(C3CCN(CCCCn4c(=O)c(-c5ccccc5C)c5n(c4=O)CCCC5)CC3)c2c1`, the inhibition constant (Ki) in experiment [1] amounted to 51.7 nM; in [2], 124 nM.
For `Cc1ccc(-c2c3n(c(=O)n(CCCCN4CCC(c5c(C)[nH]c6ccccc56)CC4)c2=O)CCCC3)cc1`, in that order: 1500 nM and 115 nM.
For the compound `O=c1c(-c2ccccc2Cl)c2n(c(=O)n1CCCCN1CCC(c3c[nH]c4ccccc34)CC1)CCCC2`, the Ki in experiment [1] worked out at 36.2 nM; in experiment [2], 101 nM.
In the case of `Cc1ccc(-c2c3n(c(=O)n(CCCCN4CCC(c5c[nH]c6ccccc56)CC4)c2=O)CCCC3)cc1`, the deltaT in the experiment on Mus musculus [3] is -0.6 °C; in the experiment on Mus musculus [5] it was -0.6 °C; in the experiment on Mus musculus [6], -0.6 °C; with Mus musculus [8], -0.3 °C; with Mus musculus [9], -0.6 °C; in the experiment with Mus musculus [11], -1 °C. Further, the deltaT in the experiment with Mus musculus [13] is -0.5 °C; with Mus musculus [14] it was -0.2 °C; in the experiment on Mus musculus [15], -0.3 °C; with Mus musculus [16] it was -0.2 °C. Moreover, the figures for the Activity in the experiment with Mus musculus [4], in the experiment on Mus musculus [10] and with Mus musculus [12] were 34%, 221 and 114, respectively. The figures for the Ki in experiment [1] and in [2] were 48.3 nM and 76.7 nM, respectively. In the experiment with Mus musculus [7], the result was inactive.

One may read the Ki as a dissociation constant, usually derived from enzyme kinetics or from competition with a known ligand.
